The results in this text go back to patent publication US20250312499A1, “KISSPEPTIN RECEPTOR (KISS1R) TARGETED THERAPEUTICS AND USES THEREOF” (priority 2024, published 2025).

This assay addresses human kisspeptin receptor (Homo sapiens (Human), UniProt Q969F8). As to the kind of experiment: Human KISS1R binding assay (membrane competition binding). The following applies: 90 min at room temperature; competition with 0.2 nM [125I]-metastin (45-54); Flp-In T-Rex 293 kisspeptin membranes; metal complexes nonradioactive Ga, In, Lu; read-out: hKiSSR Binding Ki (90 min). The method, boiled down:
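Membranes from tetracycline-induced (48 h) Flp-In T-Rex 293 cells expressing receptor, 5–10 μg, incubated 90 min at room temperature with 0.2 nM [125I]-metastin (45-54) and competitor (typically 0–10,000 nM) in Tris/Mg/Ca/EGTA/0.1% BSA, pH 7.4. Filtration, washing, counting; Ki by non-linear regression.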

Numbered stars: 1 amine (or outer) side, 2 acyl side, 3 side chain; on linkers, the order of the positions; unused ones are H or OH. Square brackets hold non-standard residues; d marks the D form. Peptide text beside a SMILES is read from it. * marks the point of attachment. DOTA = O=C(O)CN1CCN(CC(=O)O)CCN(CC(=O)*)CCN(CC(=O)O)CC1; Gly(N-(3-F-4-Me-benzyl)) = Cc1ccc(CNCC(=O)*)cc1F; Butanoyl(4-(4-I-phenyl)) = O=C(CCCc1ccc(I)cc1)*; Butanoyl(4-(4-MePh)) = Cc1ccc(CCCC(=O)*)cc1; Api(1-amidino) = N=C(N)N1CCC(N)(C(=O)O)CC1; Hydrocinnamoyl(4-Me) = Cc1ccc(CCC(=O)*)cc1; d(γGlu) = O=C(O)[C@@H](CCC(=O)[*:2])N[*:1]; Hydrocinnamoyl(4-I) = O=C(CCc1ccc(I)cc1)*; X3 = CNC(=N)N1CCC(N[*:1])(C(=O)[*:2])CC1; 2Nal = N[C@@H](Cc1ccc2ccccc2c1)C(=O)O; d2Nal = N[C@H](Cc1ccc2ccccc2c1)C(=O)O; Hyp = O=C(O)[C@@H]1C[C@@H](O)CN1; d4Pal = N[C@H](Cc1ccncc1)C(=O)O; Cha = N[C@@H](CC1CCCCC1)C(=O)O; Api = NC1(C(=O)O)CCNCC1; PEG2 = NCCOCCOCCC(=O)O; Ahx = NCCCCCC(=O)O; azaGly = NNC(=O)O

human kisspeptin receptor, sequence (Q969F8 whole entry): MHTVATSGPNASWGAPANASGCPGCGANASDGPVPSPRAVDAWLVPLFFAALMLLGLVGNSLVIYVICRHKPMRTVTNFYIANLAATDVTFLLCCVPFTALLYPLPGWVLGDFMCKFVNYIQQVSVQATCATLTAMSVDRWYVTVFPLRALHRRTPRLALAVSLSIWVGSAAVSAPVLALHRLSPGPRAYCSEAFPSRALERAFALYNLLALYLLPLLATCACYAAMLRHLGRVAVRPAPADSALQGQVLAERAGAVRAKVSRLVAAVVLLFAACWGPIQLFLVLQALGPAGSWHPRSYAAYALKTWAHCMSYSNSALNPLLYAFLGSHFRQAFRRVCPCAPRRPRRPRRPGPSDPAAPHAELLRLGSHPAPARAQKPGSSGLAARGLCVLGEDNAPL

Consider `CC(C)C[C@H](NC(=O)NNC(=O)[C@H](Cc1ccccc1)NC(=O)[C@@H](NC(=O)[C@H](CC(N)=O)NC(=O)[C@@H](Cc1ccc2ccccc2c1)NC(=O)CN1CCN(CC(=O)O)CCN(CC(=O)O)CCN(CC(=O)O)CC1)[C@@H](C)O)C(=O)NC1(C(=O)N[C@@H](Cc2ccccc2)C(N)=O)CCN(C(=N)N)CC1` [Compound 302] ({DOTA}-[d2Nal]NTF[azaGly]L[Api(1-amidino)]F-NH2), for which the Ki (usually a measure of affinity in units of concentration, obtained from inhibition or displacement) was under 10 nM.
Consider `Cc1ccc(CNCC(=O)N2CCC(NC(=O)[C@H](CC(C)C)NC(=O)NNC(=O)[C@H](Cc3ccccc3)NC(=O)[C@@H](NC(=O)[C@H](CC(N)=O)NC(=O)[C@@H](Cc3ccc4ccccc4c3)NC(=O)[C@@H](Cc3ccc(O)cc3)NC(=O)CCCCCNC(=O)CN3CCN(CC(=O)O)CCN(CC(=O)O)CCN(CC(=O)O)CC3)[C@@H](C)O)(C(=O)N[C@@H](Cc3c[nH]c4ccccc34)C(N)=O)CC2)cc1F` [Compound 304] ({DOTA-Ahx}-[dY][d2Nal]NTF[azaGly]L[Api](Gly(N-(3-F-4-Me-benzyl)))W-NH2), for which the Ki is under 10 nM.
The figure for `Cc1ccc(CNCC(=O)N2CCC(NC(=O)[C@H](CC(C)C)NC(=O)NNC(=O)[C@H](Cc3ccccc3)NC(=O)CCCCCNC(=O)[C@H](Cc3ccc(O)cc3)NC(=O)CNC(=O)CN3CCN(CC(=O)O)CCN(CC(=O)O)CCN(CC(=O)O)CC3)(C(=O)N[C@@H](Cc3c[nH]c4ccccc34)C(N)=O)CC2)cc1F` [Compound 305] ({DOTA}-GY[Ahx]F[azaGly]L[Api](Gly(N-(3-F-4-Me-benzyl)))W-NH2) is under 10 nM.
As to `Cc1ccc(CNCC(=O)N2CCC(NC(=O)[C@H](CC(C)C)NC(=O)NNC(=O)[C@H](Cc3ccccc3)NC(=O)CCCCCNC(=O)[C@H](Cc3ccc4ccccc4c3)NC(=O)[C@H](Cc3ccc(O)cc3)NC(=O)CNC(=O)CN3CCN(CC(=O)O)CCN(CC(=O)O)CCN(CC(=O)O)CC3)(C(=O)N[C@@H](Cc3c[nH]c4ccccc34)C(N)=O)CC2)cc1F` [Compound 307] ({DOTA}-GY[2Nal][Ahx]F[azaGly]L[Api](Gly(N-(3-F-4-Me-benzyl)))W-NH2), the Ki was under 10 nM.
Regarding `Cc1ccc(CCCC(=O)NCCCC[C@@H](NC(=O)CCCCCNC(=O)CN2CCN(CC(=O)O)CCN(CC(=O)O)CCN(CC(=O)O)CC2)C(=O)N[C@H](Cc2ccc(O)cc2)C(=O)N[C@H](Cc2ccc3ccccc3c2)C(=O)N[C@@H](CC(N)=O)C(=O)N[C@H](C(=O)N[C@@H](Cc2ccccc2)C(=O)NNC(=O)N[C@@H](CC(C)C)C(=O)NC2(C(=O)N[C@@H](Cc3ccccc3)C(N)=O)CCN(C(=N)N)CC2)[C@@H](C)O)cc1` [Compound 309] ({DOTA-Ahx}-[dK](Butanoyl(4-(4-MePh)))[dY][d2Nal]NTF[azaGly]L[Api(1-amidino)]F-NH2), the Ki was under 10 nM.
`CC(C)C[C@H](NC(=O)NNC(=O)[C@H](Cc1ccccc1)NC(=O)[C@@H](NC(=O)[C@H](CC(N)=O)NC(=O)[C@@H](Cc1ccc2ccccc2c1)NC(=O)[C@@H](Cc1ccc(O)cc1)NC(=O)[C@@H](CCCCNC(=O)CCCc1ccc(I)cc1)NC(=O)CCCCCNC(=O)CN1CCN(CC(=O)O)CCN(CC(=O)O)CCN(CC(=O)O)CC1)[C@@H](C)O)C(=O)NC1(C(=O)N[C@@H](Cc2ccccc2)C(N)=O)CCN(C(=N)N)CC1` [Compound 310] ({DOTA-Ahx}-[dK](Butanoyl(4-(4-I-phenyl)))[dY][d2Nal]NTF[azaGly]L[Api(1-amidino)]F-NH2): the Ki is under 10 nM.
For `CC(C)C[C@H](NC(=O)NNC(=O)[C@H](Cc1ccccc1)NC(=O)[C@@H](NC(=O)[C@H](CC(N)=O)NC(=O)[C@@H]1C[C@@H](O)CN1C(=O)[C@@H](Cc1ccc(O)cc1)NC(=O)CCCCCNC(=O)CN1CCN(CC(=O)O)CCN(CC(=O)O)CCN(CC(=O)O)CC1)[C@@H](C)O)C(=O)NC1(C(=O)N[C@@H](Cc2c[nH]c3ccccc23)C(N)=O)CCN(C(=N)N)CC1` [Compound 311] ({DOTA-Ahx}-[dY][Hyp]NTF[azaGly]L[Api(1-amidino)]W-NH2), the Ki is under 10 nM.
The figure for `Cc1ccc(CNCC(=O)N2CCC(NC(=O)[C@H](CC(C)C)NC(=O)NNC(=O)[C@H](CC3CCCCC3)NC(=O)[C@@H](NC(=O)[C@H](CC(N)=O)NC(=O)CCCCCNC(=O)CN3CCN(CC(=O)O)CCN(CC(=O)O)CCN(CC(=O)O)CC3)[C@@H](C)O)(C(=O)N[C@@H](Cc3c[nH]c4ccccc34)C(N)=O)CC2)cc1F` [Compound 313] ({DOTA-Ahx}-NT[Cha][azaGly]L[Api](Gly(N-(3-F-4-Me-benzyl)))W-NH2) is under 10 nM; for `Cc1ccc(CNCC(=O)N2CCC(NC(=O)[C@H](CC(C)C)NC(=O)NNC(=O)[C@H](CC3CCCCC3)NC(=O)[C@@H](NC(=O)[C@H](CC(N)=O)NC(=O)[C@@H](Cc3ccncc3)NC(=O)CCCCCNC(=O)CN3CCN(CC(=O)O)CCN(CC(=O)O)CCN(CC(=O)O)CC3)[C@@H](C)O)(C(=O)N[C@@H](Cc3c[nH]c4ccccc34)C(N)=O)CC2)cc1F` [Compound 314] ({DOTA-Ahx}-[d4Pal]NT[Cha][azaGly]L[Api](Gly(N-(3-F-4-Me-benzyl)))W-NH2) it is under 10 nM; for `Cc1ccc(CNCC(=O)N2CCC(NC(=O)[C@H](CC(C)C)NC(=O)NNC(=O)[C@H](CC3CCCCC3)NC(=O)[C@@H](NC(=O)[C@H](CC(N)=O)NC(=O)[C@@H](Cc3ccncc3)NC(=O)[C@@H](Cc3ccc(O)cc3)NC(=O)CN3CCN(CC(=O)O)CCN(CC(=O)O)CCN(CC(=O)O)CC3)[C@@H](C)O)(C(=O)N[C@@H](Cc3c[nH]c4ccccc34)C(N)=O)CC2)cc1F` [Compound 315] ({DOTA}-[dY][d4Pal]NT[Cha][azaGly]L[Api](Gly(N-(3-F-4-Me-benzyl)))W-NH2) it is under 10 nM.
On to `Cc1ccc(CNCC(=O)N2CCC(NC(=O)[C@H](CC(C)C)NC(=O)NNC(=O)[C@H](CC3CCCCC3)NC(=O)[C@@H](NC(=O)[C@H](CC(N)=O)NC(=O)[C@@H](Cc3ccncc3)NC(=O)[C@@H](Cc3ccc(O)cc3)NC(=O)CCCCCNC(=O)CN3CCN(CC(=O)O)CCN(CC(=O)O)CCN(CC(=O)O)CC3)[C@@H](C)O)(C(=O)N[C@@H](Cc3c[nH]c4ccccc34)C(N)=O)CC2)cc1F` [Compound 316] ({DOTA-Ahx}-[dY][d4Pal]NT[Cha][azaGly]L[Api](Gly(N-(3-F-4-Me-benzyl)))W-NH2), for which the Ki was under 10 nM.
`CC(C)C[C@H](NC(=O)NNC(=O)[C@H](CC1CCCCC1)NC(=O)[C@@H](NC(=O)[C@H](CC(N)=O)NC(=O)[C@@H](Cc1ccc2ccccc2c1)NC(=O)[C@@H](Cc1ccc(O)cc1)NC(=O)CCCCCNC(=O)CN1CCN(CC(=O)O)CCN(CC(=O)O)CCN(CC(=O)O)CC1)[C@@H](C)O)C(=O)NC1(C(=O)N[C@@H](Cc2c[nH]c3ccccc23)C(N)=O)CCN(C(=N)N)CC1` [Compound 317] ({DOTA-Ahx}-[dY][d2Nal]NT[Cha][azaGly]L[Api(1-amidino)]W-NH2): the Ki was under 10 nM.
The figure for `Cc1ccc(CNCC(=O)N2CCC(NC(=O)[C@H](CC(C)C)NC(=O)NNC(=O)[C@H](CC3CCCCC3)NC(=O)[C@@H](NC(=O)[C@H](CC(N)=O)NC(=O)[C@@H](Cc3ccc4ccccc4c3)NC(=O)[C@@H](Cc3ccc(O)cc3)NC(=O)CN3CCN(CC(=O)O)CCN(CC(=O)O)CCN(CC(=O)O)CC3)[C@@H](C)O)(C(=O)N[C@@H](Cc3c[nH]c4ccccc34)C(N)=O)CC2)cc1F` [Compound 318] ({DOTA}-[dY][d2Nal]NT[Cha][azaGly]L[Api](Gly(N-(3-F-4-Me-benzyl)))W-NH2) is under 10 nM; for `CNC(=N)N1CCC(NC(=O)[C@H](CC(C)C)NC(=O)NNC(=O)[C@H](Cc2ccccc2)NC(=O)[C@@H](NC(=O)[C@H](CC(N)=O)NC(=O)[C@@H](Cc2ccc3ccccc3c2)NC(=O)[C@@H](Cc2ccc(O)cc2)NC(=O)CCCCCNC(=O)CN2CCN(CC(=O)O)CCN(CC(=O)O)CCN(CC(=O)O)CC2)[C@@H](C)O)(C(=O)N[C@H](Cc2c[nH]c3ccccc23)C(N)=O)CC1` [Compound 319] ({DOTA-Ahx}-[dY][d2Nal]NTF[azaGly]L[X3][dW]-NH2) it is over 100 nM.
Turning to `CC(C)C[C@H](NC(=O)NNC(=O)[C@H](Cc1ccccc1)NC(=O)[C@@H](NC(=O)[C@H](CC(N)=O)NC(=O)[C@H](CCCCNC(=O)CN1CCN(CC(=O)O)CCN(CC(=O)O)CCN(CC(=O)O)CC1)NC(=O)[C@@H](Cc1ccc(O)cc1)NC(=O)CC[C@@H](NC(=O)CCc1ccc(I)cc1)C(=O)O)[C@@H](C)O)C(=O)NC1(C(=O)N[C@@H](Cc2c[nH]c3ccccc23)C(N)=O)CCN(C(=N)N)CC1` [Compound 320] ({Hydrocinnamoyl(4-I)-d(γGlu)}-[dY]K(DOTA)NTF[azaGly]L[Api(1-amidino)]W-NH2), the Ki is under 10 nM.
For the molecule `CC(C)C[C@H](NC(=O)NNC(=O)[C@H](Cc1ccccc1)NC(=O)[C@@H](NC(=O)[C@H](CC(N)=O)NC(=O)[C@H](CCCCNC(=O)CN1CCN(CC(=O)O)CCN(CC(=O)O)CCN(CC(=O)O)CC1)NC(=O)[C@@H](Cc1ccc(O)cc1)NC(=O)CCc1ccc(I)cc1)[C@@H](C)O)C(=O)NC1(C(=O)N[C@@H](Cc2c[nH]c3ccccc23)C(N)=O)CCN(C(=N)N)CC1` [Compound 321] ({Hydrocinnamoyl(4-I)}-[dY]K(DOTA)NTF[azaGly]L[Api(1-amidino)]W-NH2), the Ki was under 10 nM.
As to `Cc1ccc(CCC(=O)NCCOCCOCCC(=O)N[C@H](Cc2ccc(O)cc2)C(=O)N[C@@H](CCCCNC(=O)CN2CCN(CC(=O)O)CCN(CC(=O)O)CCN(CC(=O)O)CC2)C(=O)N[C@@H](CC(N)=O)C(=O)N[C@H](C(=O)N[C@@H](Cc2ccccc2)C(=O)NNC(=O)N[C@@H](CC(C)C)C(=O)NC2(C(=O)N[C@@H](Cc3ccccc3)C(N)=O)CCN(C(=N)N)CC2)[C@@H](C)O)cc1` [Compound 322] ({Hydrocinnamoyl(4-Me)-PEG2}-[dY]K(DOTA)NTF[azaGly]L[Api(1-amidino)]F-NH2), the Ki was under 10 nM.
As for `CC(C)C[C@H](NC(=O)NNC(=O)[C@H](Cc1ccccc1)NC(=O)[C@@H](NC(=O)[C@H](CC(N)=O)NC(=O)[C@H](CCCCNC(=O)CN1CCN(CC(=O)O)CCN(CC(=O)O)CCN(CC(=O)O)CC1)NC(=O)[C@@H](Cc1ccc(O)cc1)NC(=O)CCOCCOCCNC(=O)CCc1ccc(I)cc1)[C@@H](C)O)C(=O)NC1(C(=O)N[C@@H](Cc2ccccc2)C(N)=O)CCN(C(=N)N)CC1` [Compound 323] ({Hydrocinnamoyl(4-I)-PEG2}-[dY]K(DOTA)NTF[azaGly]L[Api(1-amidino)]F-NH2), the figure is under 10 nM.
